Results reported in patent US20120115852A1, “HETEROCYCLIC COMPOUNDS AS AUTOTAXIN INHIBITORS” (Merck Patent Gesellschaft Mit Beschrankter Haftung, priority 2009, published 2012).

Target: T1, recombinant autotaxin (Homo sapiens, UniProt Q13822)
T1 construct: made in house; host or cells: Hi5 insect cells (baculovirus)
Assay: Autotaxin test (enzyme test), Amplex Red fluorescence with LPC substrate
Format: biochemical
Conditions: autotaxin inhibition (enzyme test); for remaining activity at 10 µM: 10 μM compound, read-out: % Control at 10 μM
Experimental: Autotaxin Inhibition (Enzyme Test)
Autotaxin Test (Enzyme Test)
The autotaxin activity is measured indirectly using Amplex Red reagent. Amplex Red is measured here as fluorogenic indicator for the H2O2 formed. In detail, autotaxin converts the substrate lysophosphatidylcholine (LPC) into phosphocholine and lysophosphatidylic acid (LPA). After this reaction, the phosphocholine is reacted with alkaline phosphatase to give inorganic phosphate and choline. In the next step, choline is oxidised by choline oxidase to give betaine, with formation of H2O2. H2O2 reacts with Amplex Red reagent in the presence of peroxidase (horseradish peroxidase) in a 1:1 stoichiometry and forms the highly fluorescent resorufin. The fluorescence is measured in a reaction-dependent kinetic mode in order that fluorescent signals from possible other fluorescent substances which are not involved in the reaction can be corrected out.
3 μl of a standard solution or of the test substances (substances with the name A(n)) in individual concentrations dissolved in 20 mM Hepes pH 7.2 with a maximum of 11% of DMSO are pre-incubated together with 20 μl (19 ng) of highly purified recombinant autotaxin in test buffer in a black microtitre plate provided with 384 wells at 22° C. for 30 min. The reaction is then initiated by addition of 10 μl of L-α-lysophosphatidylcholine (LPC), where the final concentration of LPC is 75 μM. The mixture is incubated at 37° C. for 90 min. After the incubation, Amplex Red reagent, peroxidase (horseradish peroxidase) and choline oxidase is added, and the fluorescence is immediately measured at 612 nm with excitation of 485 nm in a “Tecan Ultra multimode” reader. The activity of autotaxin is calculated indirectly via detection of the H2O2 formed.
• Microtitre plate: PS microplate, 384 wells, small volume, black Corning, Cat#3677 • Protein: recombinant autotaxin (Baculovirale Hi5 Expression) • Substrate: L-α-lysophosphatidylcholine (chicken egg)); Avanti Polar Lipids #830071 P • Standard: C14 LPA, Avanti Polar Lipids, Cat#857120P • Detection reagent: Amplex Red reagent; Invitrogen #A12222; 5 mg dissolved in 1.923 ml of DMSO peroxidase type VI-A (horseradish) from Sigma #P6782; 5 mg dissolved in 7.45 ml of test buffer, choline oxidase; Sigma # C5896; 50 U dissolved in 2.47 ml of test buffer • Detection reagent mix: 1:50 dilution of detection reagent in test buffer • Test buffer: 10 mM Tris HCl, Merck, Cat #1.08219, pH 8, 1 mM; CaCl2×2 H2O, Merck #1.02382

Structure (SMILES)	remaining activity at 10 µM [%]	IC50 [nM]
O=C1Nc2ccc(-c3ccc(Cl)cc3)cc2C(=O)N2CCN(C(=O)C(O)c3ccc(Cl)cc3)CC12 (stereo not drawn) [Compound A38, 7-(4-Chlorophenyl)-2-[2-(4-chlorophenyl)-2-hydroxyacetyl]-1,3,4,11a-tetrahydro-2H,10H-2,4a,10-triazadibenzo[a,d]cycloheptene-5,11-dione]	35	> 1000
O=C1Nc2ccc(-c3ccccc3)cc2C(=O)N2CCN(C(=O)c3cccs3)C[C@H]12 [Compound B15]	79	
O=C1Nc2ccc(-c3ccc(Cl)cc3)cc2C(=O)N2CCN(C(=O)C3CCNCC3)C[C@H]12 [Compound B5]	64	
O=C1Nc2ccc(-c3ccccc3F)cc2C(=O)N2CCN(C(=O)c3ccccn3)CC12 (stereo not drawn) [Compound A15, 7-(2-Fluorophenyl)-2-(pyridine-2-carbonyl)-1,3,4,11a-tetrahydro-2H,10H-2,4a,10-triaza-dibenzo[a,d]cycloheptene-5,11-dione]	55	> 1000
COc1ccc(-c2ccc3c(c2)C(=O)N2CCN(C(=O)[C@@H](O)c4ccccc4)C[C@@H]2C(=O)N3)cc1 [Compound B2]	84	
O=C1Nc2ccc(-c3ccc(Cl)cc3)cc2C(=O)N2CCN(C(=O)CO)C[C@H]12 [Compound B14]	80	
CN(C)CCN1CCC[C@H]1C(=O)N1CCN2C(=O)c3cc(-c4ccc(Cl)cc4F)ccc3NC(=O)C2C1 (stereo partly drawn) [Compound A115, 7-(4-Chloro-2-fluorophenyl)-2-[(S)-1-(2-dimethyl-aminoethyl)pyrrolidine-2-carbonyl]-1,3,4,11a-tetrahydro-2H,10H-2,4a,10-triaza-dibenzo[a,d]cycloheptene-5,11-dione]	80	> 1000
CC(C)(C)CC(=O)N1CCN2C(=O)c3cc(OC(F)(F)F)ccc3NC(=O)C2C1 (stereo not drawn) [Compound A133, 2-(3,3-Dimethylbutyryl)-7-trifluoromethoxy-1,3,4,11a-tetrahydro-2H,10H-2,4a,10-triaza-dibenzo[a,d]cycloheptene-5,11-dione]	27	> 1000
O=C1Nc2ccc(-c3ccc(Cl)cc3)cc2C(=O)N2CCN(C(=O)c3csc(-c4cccnc4)n3)CC12 (stereo not drawn) [Compound A76, 7-(4-Chlorophenyl)-2-(2-pyridin-3-ylthiazole-4-carbonyl)-1,3,4,11a-tetrahydro-2H,10H-2,4a,10-triazadibenzo[a,d]cycloheptene-5,11-dione]	41	> 1000
O=C1Nc2ccc(-c3ccc(Cl)cc3)cc2C(=O)N2CCN(C(=O)[C@@H]3CCCN3C3CCNCC3)C[C@@H]12 [Compound A81, (S)-7-(4-Chlorophenyl)-2-((S)-1-piperidin-4-yl-pyrrolidine-2-carbonyl)-1,3,4,11a-tetrahydro-2H,10H-2,4a,10-triazadibenzo[a,d]cycloheptene-5,11-dione]	33	
C#Cc1ccc(-c2ccc3c(c2)C(=O)N2CCN(C(=O)CC(C)(C)C)CC2C(=O)N3)cc1 (stereo not drawn) [Compound A140, 2-(3,3-Dimethylbutyryl)-7-(4-ethynylphenyl)-1,3,4,11a-tetrahydro-2H,10H-2,4a,10-triaza-dibenzo[a,d]cycloheptene-5,11-dione]	-10	> 1000
COCCN1C(=O)C2CN(C(=O)CC(C)(C)C)CCN2C(=O)c2cc(-c3ccc(Cl)cc3)ccc21 (stereo not drawn) [Compound A135, 7-(4-Chlorophenyl)-2-(3,3-dimethylbutyryl)-10-(2-methoxyethyl)-1,3,4,11a-tetrahydro-2H,10H-2,4a,10-triazadibenzo[a,d]cycloheptene-5,11-dione]	-9	> 1000
O=C1Nc2ccc(-c3ccc(Cl)cc3)cc2C(=O)N2CCN(C(=O)c3ccccc3)CC12 (stereo not drawn) [Compound B27]	59	> 1000
CC(C)(C)CC(=O)N1CCN2C(=O)c3cc(-c4ccccc4F)ccc3NC(=O)C2C1 (stereo not drawn) [Compound A13, 2-(3,3-Dimethylbutyryl)-7-(2-fluorophenyl)-1,3,4,11a-tetrahydro-2H,10H-2,4a,10-triaza-dibenzo[a,d]cycloheptene-5,11-dione]		> 1000
CC(C)(C(=O)N1CCN2C(=O)c3cc(-c4ccc(Cl)cc4)ccc3NC(=O)C2C1)c1ccccc1 (stereo not drawn) [Compound A46, 7-(4-Chlorophenyl)-2-(2-methyl-2-phenylpropionyl)-1,3,4,11a-tetrahydro-2H,10H-2,4a,10-triaza-dibenzo[a,d]cycloheptene-5,11-dione]		> 1000
CO[C@H](C(=O)N1CCN2C(=O)c3cc(-c4ccc(Cl)cc4)ccc3NC(=O)C2C1)C(C)(C)C (stereo partly drawn) [Compound A138, 7-(4-Chlorophenyl)-2-((S)-2-methoxy-3,3-dimethyl-butyryl)-1,3,4,11a-tetrahydro-2H,10H-2,4a,10-triazadibenzo[a,d]cycloheptene-5,11-dione]	-21	100 to 1000
O=C1Nc2ccc(-c3ccc(Cl)cc3)cc2C(=O)N2CCN(C(=O)C(O)c3cccc(C(F)(F)F)c3)CC12 (stereo not drawn) [Compound A45, 7-(4-Chlorophenyl)-2-[2-hydroxy-2-(3-trifluoro-methylphenyl)acetyl]-1,3,4,11a-tetrahydro-2H,10H-2,4a,10-triazadibenzo[a,d]cycloheptene-5,11-dione]	61	> 1000
CC(C)[C@H](O)C(=O)N1CCN2C(=O)c3cc(-c4ccc(Cl)cc4)ccc3NC(=O)C2C1 (stereo partly drawn) [Compound A74, 7-(4-Chlorophenyl)-2-((S)-2-hydroxy-3-methyl-butyryl)-1,3,4,11a-tetrahydro-2H,10H-2,4a,10-triaza-dibenzo[a,d]cycloheptene-5,11-dione]	-2	> 1000

More lines, now with the values ahead:

remaining activity at 10 µM [%]	IC50 [nM]	Structure (SMILES)
84		CC(C)(C)[C@H](O)C(=O)N1CCN2C(=O)c3cc(-c4ccc(Cl)cc4)ccc3NC(=O)[C@@H]2C1 [Compound A54, (S)-7-(4-Chlorophenyl)-2-((S)-2-hydroxy-3,3-di-methyl-1-oxobutyl)-1,3,4,11a-tetrahydro-2H,10H-2,4a,10-triazadibenzo[a,d]cycloheptene-5,11-dione]
19	> 1000	Cn1cncc1C(=O)N1CCN2C(=O)c3cc(-c4ccc(Cl)cc4F)ccc3NC(=O)C2C1 (stereo not drawn) [Compound A67, 7-(4-Chloro-2-fluorophenyl)-2-(3-methyl-3H-imidazole-4-carbonyl)-1,3,4,11a-tetrahydro-2H,10H-2,4a,10-triazadibenzo[a,d]cycloheptene-5,11-dione]
55		O=C1Nc2ccc(-c3ccc(Cl)cc3)cc2C(=O)N2CCN(C(=O)c3cnc[nH]3)CC12 (stereo not drawn) [Compound A75, 7-(4-Chlorophenyl)-2-(3H-imidazole-4-carbonyl)-1,3,4,11a-tetrahydro-2H,10H-2,4a,10-triaza-dibenzo[a,d]cycloheptene-5,11-dione]
68	> 1000	O=C1Nc2ccc(-c3ccc(Cl)cc3)cc2C(=O)N2CCN(C(=O)C(O)c3cccc(Cl)c3)CC12 (stereo not drawn) [Compound A41, 7-(4-Chlorophenyl)-2-[2-(3-chlorophenyl)-2-hydroxyacetyl]-1,3,4,11a-tetrahydro-2H,10H-2,4a,10-triazadibenzo[a,d]cycloheptene-5,11-dione]
21	> 1000	O=C([C@@H]1CCCN1C1CCNCC1)N1CCN2C(=O)c3cc(-c4ccc(Cl)cc4F)ccc3N(CCC3CCNCC3)C(=O)[C@H]2C1 [Compound A158]
-10	> 1000	CC(C)(C)CC(=O)N1CCN2C(=O)c3cc(-c4ccccc4Cl)ccc3NC(=O)C2C1 (stereo not drawn) [Compound A103, 7-(2-Chlorophenyl)-2-(3,3-dimethylbutyryl)-1,3,4,11a-tetrahydro-2H,10H-2,4a,10-triaza-dibenzo[a,d]cycloheptene-5,11-dione]
66	> 1000	Cc1nc(C(=O)N2CCN3C(=O)c4cc(-c5ccc(Cl)cc5)ccc4NC(=O)C3C2)c(N)s1 (stereo not drawn) [Compound A37, 2-(5-Amino-2-methylthiazole-4-carbonyl)-7-(4-chlorophenyl)-1,3,4,11a-tetrahydro-2H,10H-2,4a,10-triazadibenzo[a,d]cycloheptene-5,11-dione]
78		Cc1ccc(-c2ccc3c(c2)C(=O)N2CCN(C(=O)CC(C)(C)C)CC2C(=O)N3)c(C)c1 (stereo not drawn) [Compound A86, 2-(3,3-Dimethylbutyryl)-7-(2,4-dimethylphenyl)-1,3,4,11a-tetrahydro-2H,10H-2,4a,10-triaza-dibenzo[a,d]cycloheptene-5,11-dione]
